The values below come from patent US4678810A, “Medical uses of halogenobenzohenone-oxime derivatives” (Institut de Recherches Chimiques et Biologiques of Appliques, priority 1983, dated 1987).

On the set-up of series [1]: species or system mice. To be noted: mouse, in vivo. On the procedure: (§1) Assays were performed on batches of mice (males and females) weighing each from 18 to 20 g and receiving the compounds to be tested at the doses of 0.5 g/kg, 0.8 g/kg, 1 g/kg, 2 g/kg, 3 g/kg and 4 g/kg per os in an aqueous medium containing 20 g/l of carboxymethylcellulose, the animals being observed during the 14 days following administration.

Series [2] has as its system Streptococcus pyogenes CIP. 56.1. Nature of the series: Antibacterial activity in vitro (MIC), dilution technique. The class given is cell-based. The text has this: (§2) The antibacterial activity was studied in vitro according to the usual classical dilution techinque with respect to several strains, in order to determine the minimal inhibiting concentration (M.I.C.) i.e. the minimal bacteriostatic concentration.
(§3) The results thus obtained are tabulated in table II hereinafter, the strains used being those of the catalogues of the "Institut Pasteur" of Paris, France (abbreviation: CIP), the "Centre International de Distribution de Souches et d'Information sur les Types Microbiens de Lausanne" (abbreviation: La) and the "American Type Culture Collection" (abbreviation: ATCC).

Series [3] concerns Streptococcus pyogenes CIP. 56.43. The description is as above. The class given is cell-based.
Source text: as §2, §3

For series [4], the system named is Streptococcus La 147. Described as above. To be noted: LA147. The class given is cell-based.
Source text: as §2, §3

In series [5] the test system is Staphylococcus aureus ATCC 6538 P. The description is as above. The class given is cell-based. The note with it: ATCC6538.
Source text: as §2, §3

The subject of series [6] is Staphylococcus aureus London CIP A.238. The description is as above. The series is classed as cell-based.
Source text: as §2, §3

For series [7], the system named is Streptococcus pyogenes CIP. 56.45. The series is described as above. The class given is cell-based.
Source text: as §2, §3

Series [8] has as its system Streptococcus pyogenes CIP. A 241. Described as above. The series is classed as cell-based. The note with it: CIP.A241.
Source text: as §2, §3

For series [9], the system named is Diplococcus pneumoniae La 209. The series is described as above. To be noted: Streptococcus pneumoniae, LA209. The class given is cell-based.
Source text: as §2, §3

For series [10], the system named is Staphylococcus aureus La 659. The series is described as above. To be noted: LA659. The class given is cell-based.
Source text: as §2, §3

For series [11], the system named is Streptococcus faecalis CIP 53.152. Described as above. The series is classed as cell-based. To be noted: Enterococcus faecalis, CIP53.
Source text: as §2, §3

The test system of series [12] is Streptococcus faecalis CIP 55.142. Described as above. To be noted: Enterococcus faecalis, CIP55. The series is classed as cell-based.
Source text: as §2, §3

Series [13] has as its system Diplococcus pneumoniae La 210. The series is described as above. The class given is cell-based. The note with it: Streptococcus pneumoniae, LA210.
Source text: as §2, §3

Series [14] relates to Bacillus subtilis ATCC 6633. The series is described as above. The series is classed as cell-based. To be noted: ATCC6633.
Source text: as §2, §3

The test system of series [15] is Staphylococcus aureus La 634. The description is as above. The series is classed as cell-based. To be noted: LA634.
Source text: as §2, §3

Series [16] concerns Streptococcus pyogenes CIP. 56.41. Described as above. The series is classed as cell-based.
Source text: as §2, §3

Series [17] deals with Staphylococcus aureus La 636. The description is as above. The class given is cell-based. The note with it: LA636.
Source text: as §2, §3

Series [18] relates to Gram+ strains. Kind of series: Antibacterial activity in vitro, summary for Gram+ strains. The class given is cell-based, Gram+ bacteriae. The note with it: compared with B.11.
Source text: as §2, §3

The subject of series [19] is Gram- strains such as Neisseria. Kind of series: Antibacterial activity in vitro, summary for some Gram- strains. The class given is cell-based.
Source text: as §2, §3

Series [20] is described as follows: Acute oral toxicity (DL-50), 14-day observation. The note with it: mouse, in vivo, mice, per os, 14 days observation. On the procedure: as §1
In series [21] the test system is acute infections of the otorhinolaryngological system and bronchopathies. Kind of series: Clinical assays in acute infections of the otorhinolaryngological system and bronchopathies. The class given is in vivo, human. To be noted: humans, acute ENT infections and bronchopathies. How it is done:
Clinical assays carried out on human beings suffering from infectious disease caused by Gram+ bacteriae and Neisseria Gram- bacteria gave fair and good results, especially when the pharmaceutical composition according to the invention which was administered suitably contained from 0.1 to 95% by weight of at least one compound of the formula I.
For oral administration, the composition is preferably formulated as tablets or gelatine-coated capsules, each tablet or capsule containing from 10 to 200 mg of the active ingredient. For the treatment of infections due to Gram+ bacteriae and Neisseria, such tablets or capsules are suitably administered to human patients at the rate of 2 to 8 tablets or capsules per day, for at least 4 days and preferably from 4 to 7 days, in particular for compound B.602.

A short description of series [22]: Tolerance: diarrhoea after oral administration. The class given is in vivo. To be noted: mice, per os. How it is done: as §1
A short description of series [23]: Tolerance: rectal temperature after oral administration. The class given is in vivo. To be noted: mice, per os, from the dose of 2 g/kg. How it is done:
as §1

For series [24] the following is noted: cited from earlier work.
Series [25] can be described thus: Tolerance: weight / liver hypertrophy after oral administration. The note with it: mice, per os, from the dose of 0.8 g/kg. The series is classed as in vivo. How it is done:
as §1

Series [26] concerns Gram+ bacteriae. To be noted: commercialized drug; cited from earlier work.

≈ marks a conversion by molar mass, not a printed value.

In the case of `CC(C)(C)CC(C)(C)c1ccc(O)c(C(=NO)c2ccc(Cl)cc2Cl)c1` [Example 1, 2',4'-dichloro-2-hydroxy-5-(1,1,3,3-tetramethylbutyl)-benzophenone-oxime], the “tolerance compared with B.11” value in [1] was “better tolerated than B.11”. Also, the MIC (in general, the lowest concentration that inhibits growth of the organism) in series [2] came to 2 µg/mL (≈ 5.07 µM); in [3] it was 1 µg/mL (≈ 2.54 µM); in [4] it was 2 µg/mL (≈ 5.07 µM); in series [5], 4 µg/mL (≈ 10.1 µM); in series [6] it was 1 µg/mL (≈ 2.54 µM); in [7], 1 µg/mL (≈ 2.54 µM). For the same molecule, the MIC in series [8] was 2 µg/mL (≈ 5.07 µM); in series [9], 4 µg/mL (≈ 10.1 µM); in series [10], 5 µg/mL (≈ 12.7 µM); in series [11], 3 µg/mL (≈ 7.61 µM); in series [12], 2 µg/mL (≈ 5.07 µM); in series [13], 3 µg/mL (≈ 7.61 µM). Moreover, the MIC was determined as 1 µg/mL (≈ 2.54 µM) in series [14], 3 µg/mL (≈ 7.61 µM) in [15], 3 µg/mL (≈ 7.61 µM) in series [16] and 4 µg/mL (≈ 10.1 µM) in [17]. For the same molecule, in series [18], the “activity against Gram+ strains” value is on record as “more active than B.11”. Besides, the “activity against some Gram- strains” value in series [19] is “active against some Gram- strains such as Neisseria”. Moreover, the LD50 (usually the dose at which mortality reaches 50%) at 336 h in series [20] is more than 4000 mg/kg. Also, the “clinical result as a bactericidal agent” value in series [21] was “very interesting as a bactericidal agent”.
Consider `CC(C)(C)CC(C)(C)c1ccc(O)c(Cc2ccc(Cl)cc2Cl)c1` [Clofoctol, 2-(2,4-dicholrobenzyl)-4-(1,1,3,3-tetramethylbutyl)-phenol], for which the “dose at which it begins to induce diarrhoea” value in [22] was 800 mg/kg. The MIC in series [2] turned out to be 3 µg/mL (≈ 8.21 µM); in series [3], 2 µg/mL (≈ 5.47 µM); in [4], 7 µg/mL (≈ 19.2 µM); in [5], 8 µg/mL (≈ 21.9 µM); in [6], 3 µg/mL (≈ 8.21 µM); in series [7] it was 2 µg/mL (≈ 5.47 µM). Also, the MIC in series [8] was determined as 4 µg/mL (≈ 10.9 µM); in series [9], 4 µg/mL (≈ 10.9 µM); in series [10] it was 6 µg/mL (≈ 16.4 µM); in series [11] it was 6 µg/mL (≈ 16.4 µM); in series [12], 5 µg/mL (≈ 13.7 µM); in series [13], 5 µg/mL (≈ 13.7 µM). The MIC in series [14] was found to be 4 µg/mL (≈ 10.9 µM); in series [15], 6 µg/mL (≈ 16.4 µM); in [16], 4 µg/mL (≈ 10.9 µM); in [17], 5 µg/mL (≈ 13.7 µM). The “reduction of rectal temperature” value in series [23] is on record as “reduces the rectal temperature for 48 hours”. In series [24], the hydrosolubility / hydrodispersibility result was “not naturally hydrosoluble nor hydrodispersible”. Moreover, in series [20], the 50% lethal dose (LD50) at 336 h was found to be 2000 mg/kg. Moreover, the liver hypertrophy entry in [25] is on record as “induces a slight liver hypertrophy”. Also, the “effectiveness in infectious diseases caused by Gram+ bacteriae” value in series [26] is on record as “particularly effective”.
